Measured values from PMC12112476, “Mass Spectrometric ITEM-FOUR Analysis Reveals Coding Single-Nucleotide Polymorphisms in Human Cardiac Troponin T That Evade Detection by Sandwich ELISAs Which Use Monoclonal Antibodies M7 and M11.7 from the Elecsys Troponin T® Assay” (International Journal of Molecular Sciences, 2025).

Assays:
[1] = tested on: monoclonal anti-hcTnT antibody M7; experiment: ITEM-FOUR nano-ESI mass spectrometry: in-solution immune complex formation and gas-phase dissociation of M7 antibody–epitope peptide complexes; type: binding; details: for dx (V): Boltzmann curve parameter; for dx (V) / ΔCV50 (V) / Slope (%/V): peptide:antibody 2.1:1; for dx (V) / ΔCV50 (V) / Final (%) / Initial (%) / Slope (%/V): averaged from two acquisitions; for KD m0g# [Ø]: apparent gas-phase dissociation constant, dimensionless number, extrapolated to ambient temperature; for Binding Type: class by difference of normalized product ion intensities over ΔCV; for ΔCV50 (V): collision cell voltage difference for 50% dissociation, Boltzmann fit; for Final (%): normalized product ion quantity at highest applied ΔCV, peptide:antibody 2.1:1, 200 mM ammonium acetate pH 6.7; for Initial (%): normalized product ion quantity at lowest applied ΔCV, peptide:antibody 2.1:1, 200 mM ammonium acetate pH 6.7, at least 1 h RT, nano-ESI, ΔCV 0-58 V; for ΔGm0g# / Tamb ΔSm0g# / ΔHm0g#: pseudo thermodynamic value of gas-phase complex dissociation; for ΔGm0g#: Ellingham diagram read at Tamb; for Tamb ΔSm0g# / ΔHm0g#: extrapolated to Tamb; for Slope (%/V): slope of Boltzmann curve; for in-solution immune complex formation with M7 (binding in words): nano-ESI-MS, 200 mM ammonium acetate pH 6.7, peptide:antibody 2.1:1 (epitope series) or 13:1 (negative controls)
Method: (§1) Immune complex-containing solutions of a wild-type epitope peptide and its corresponding antibody, e.g., P11 and M7, were prepared by mixing the two components in 200 mM ammonium acetate buffer (pH 6.7), ensuring a molar excess of the epitope peptide over the antibody to achieve binding saturation. After an incubation period of one hour, the entire mixture (~3 µL) was loaded into a nano-ESI emitter and electrosprayed. The mass spectrometer was configured to transmit only ion signals with m/z values above 3850, effectively eliminating signals from the unbound peptide (Figure 1A).
(§2) Antibody–peptide mixture solutions were prepared for ITEM FOUR experiments by mixing 5 µL of one antibody working solution with one assigned peptide working solution to generate antibody to peptide molar ratios of 1:2.1 for all solutions that contained the M7 antibody. For mixture solutions containing the M11.7 or the anti-TNFα antibody, 1:13 molar ratios were prepared. Antibodies were incubated together with peptides for at least one hour at room temperature prior to analysis.
(§3) Data acquisition for ITEM-FOUR experiments was performed as described in [18] with the Synapt G2S mass spectrometer (Waters MS-Technologies, Wilmslow, UK) and with the following instrumental settings: source temperature, 40 °C; capillary voltage, 1.0–1.3 kV; sample cone voltage, 130 V; source offset voltage, 130 V; trap gas flow (argon), 8.0 mL/min; helium gas: 20 bar. All mass spectra were acquired in positive-ion mode applying a mass window of m/z 200–8000. The quadrupole analyzer was used to block transmission of lower-molecular-mass ions: M1 = 5000 with dwell time of 25% and ramp time of 25%; M2 = 5000 with dwell time of 25% and ramp time of 25%; M3 = 5000. ΔCV in the TRAP collision cell was increased stepwise as follows: 0, 2, 6, 10, 14, 18, 22, 26, 30, 34, 40, 46, 52 and 58 V. The ion mobility separation mode was not used. All acquired scans during a given collision cell voltage difference setting were integrated to obtain an averaged spectrum from which ion intensities were extracted for ITEM-FOUR calculations. Data were acquired and processed with MassLynx software version 4.1 (Waters MS-Technologies). For exact time stamps of all measurements, refer to Table S2 in the Supplement (see also the deposited raw data supplement in the PRIDE directory). All mass spectra for each ΔCV setting were smoothed using the Savitzky-Golay method. Spectra of antibody solutions and antibody–peptide mixture solutions were smoothed using 30 cycles with a 15-mass unit window at the high mass end and at the low mass end with 3 cycles and a 2-mass unit window. All measurements were recorded in duplicate. The mass spectrometric raw data have been deposited via the ProteomeXchange Consortium in the PRIDE partner repository with the dataset identifier PXD058812 [70].
(§4) The Origin Pro 2023b (64-bit, OriginLab Corporation, Northampton, MA, USA) software package with an automation script for processing multiple datasets was used to graphically plot the extracted intensities of the ion signals of all relevant molecular entities (the immune complex with two bound peptides, the immune complex with one bound peptide, free antibodies, and free peptides) against their corresponding charge state for each collision cell voltage difference (ΔCV). Subsequently, Gaussian curve fittings were performed separately for each molecular entity. […] Iterations were performed for R2 values to be at least 0.91. Apices of Gaussian curves provided the intensities and the average m/z values for each molecular species. Intensity values of individual molecular entities (educts and products) were summed and normalized. Normalized intensities of educts and products from duplicate measurements were averaged.
(§5) The number of atoms from rituximab was used because the amino acid sequences of neither the M7 nor the M11.7 antibody were disclosed. […]

[2] = tested on: monoclonal anti-hcTnT antibody M11.7; experiment: ITEM-FOUR nano-ESI mass spectrometry: in-solution immune complex formation and gas-phase dissociation of M11.7 antibody–epitope peptide complexes; type: binding; details: for dx (V): Boltzmann curve parameter; for dx (V) / ΔCV50 (V) / Slope (%/V) / Δ (% pts) / in-solution immune complex formation with M11.7 (binding in words): peptide:antibody 13:1; for dx (V) / ΔCV50 (V) / Final (%) / Initial (%) / Slope (%/V): averaged from two acquisitions; for Binding Type: class by difference of normalized product ion intensities over ΔCV; for ΔCV50 (V): collision cell voltage difference for 50% dissociation, Boltzmann fit; for Final (%): normalized product ion quantity at highest applied ΔCV, peptide:antibody 13:1, 200 mM ammonium acetate pH 6.7; for Initial (%): normalized product ion quantity at lowest applied ΔCV, peptide:antibody 13:1, 200 mM ammonium acetate pH 6.7, at least 1 h RT, nano-ESI, ΔCV 0-58 V; for Slope (%/V): slope of Boltzmann curve; for Δ (% pts): difference Final minus Initial normalized product ion intensity; for KD m0g# [Ø]: apparent gas-phase dissociation constant, dimensionless number, extrapolated to ambient temperature; for ΔGm0g# / Tamb ΔSm0g# / ΔHm0g#: pseudo thermodynamic value of gas-phase complex dissociation; for ΔGm0g#: Ellingham diagram read at Tamb; for Tamb ΔSm0g# / ΔHm0g#: extrapolated to Tamb; for in-solution immune complex formation with M11.7 (binding in words): nano-ESI-MS, 200 mM ammonium acetate pH 6.7
Method: as §1, §2, §3, §4, §5

| Sequence | Binding Type [1] | Final (%) [1] [%] | Initial (%) [1] [%] | dx (V) [2] [V] | Binding Type [2] | ΔCV50 (V) [2] [V] | Final (%) [2] [%] | Initial (%) [2] [%] | Slope (%/V) [2] [%/V] | also measured |
| --- | --- | --- | --- | --- | --- | --- | --- | --- | --- | --- |
| LVSLKDRIERCRAER [Peptide P13] | orthodox (The differences in normalized product ion intensity values were always greater than 15 percentage points) | 83.40 | 40.36 | – | – | – | – | – | – | dx (V) [1]: 6.55 V; KD m0g# [Ø] [1]: 0.28 Ø; ΔCV50 (V) [1]: 23.30 V; ΔGm0g# [1]: 0.758 kcal/mol; Tamb ΔSm0g# [1]: 12.43 kcal/mol; ΔHm0g# [1]: 13.18 kcal/mol; Slope (%/V) [1]: 1.64 %/V |
| AEQQHIRNEREKERQ [Peptide P27] | – | – | – | 7.60 | unorthodox (Differences in normalized product ion intensities were less than 15 percentage points, but greater than 5 percentage points) | 14.04 | 93.49 | 80.22 | 0.44 | – |
| AEQQRIQNEREKERQ [Peptide P29] | – | – | – | 5.17 | unorthodox (Differences in normalized product ion intensities were less than 15 percentage points, but greater than 5 percentage points) | 9.96 | 93.92 | 84.39 | 0.46 | Δ (% pts) [2]: 9.53 % pts |
| AEQQRIWNEREKERQ [Peptide P28] | – | – | – | 6.90 | unorthodox (Differences in normalized product ion intensities were less than 15 percentage points, but greater than 5 percentage points) | 13.80 | 93.90 | 86.91 | 0.25 | Δ (% pts) [2]: 6.99 % pts |
| AKQQRIRNEREKERQ [Peptide P23] | – | – | – | 7.29 | orthodox (The differences in normalized product ion intensity values were always greater than 15 percentage points) | 22.47 | 89.77 | 67.00 | 0.78 | KD m0g# [Ø] [2]: 1.18 Ø; ΔGm0g# [2]: -0.1 kcal/mol; Tamb ΔSm0g# [2]: 9.037 kcal/mol; ΔHm0g# [2]: 8.941 kcal/mol |
| AEQQCIRNEREKERQ [Peptide P25] | – | – | – | 6.00 | unorthodox (Differences in normalized product ion intensities were less than 15 percentage points, but greater than 5 percentage points) | 10.06 | 93.33 | 80.75 | 0.52 | – |
| AEQQRIRNEWEKERQ [Peptide P30] | – | – | – | – | non-binding (The differences in normalized product intensity values were less than 5 percentage points) | – | 94.03 | 90.48 | – | in-solution immune complex formation with M11.7 (binding in words) [2]: Loss of binding |
| LVSLKDRIKRRRAER [Peptide P12] | non-binding (The differences in normalized product intensity values were less than 5 percentage points) | 92.28 | 89.38 | – | – | – | – | – | – | in-solution immune complex formation with M7 (binding in words) [1]: no immune complex had formed in solution; in-solution immune complex formation with M7 (binding in words) ([1]; listed as E138K): disrupted binding |
| AEQQRIRNEQEKERQ [Peptide P31] | – | – | – | – | non-binding (The differences in normalized product intensity values were less than 5 percentage points) | – | 93.39 | 93.60 | – | in-solution immune complex formation with M11.7 (binding in words) [2]: Loss of binding |
| AEQRRIRNEREKERQ [Peptide P24] | – | – | – | – | non-binding (The differences in normalized product intensity values were less than 5 percentage points) | – | 93.57 | 90.25 | – | in-solution immune complex formation with M11.7 (binding in words) [2]: Loss of binding |
| AEQQRIRNERKKERQ [Peptide P32] | – | – | – | 7.32 | orthodox (The differences in normalized product ion intensity values were always greater than 15 percentage points) | 17.63 | 96.03 | 69.09 | 0.92 | KD m0g# [Ø] [2]: 1.43 Ø; ΔGm0g# [2]: -0.21 kcal/mol; Tamb ΔSm0g# [2]: 12.24 kcal/mol; ΔHm0g# [2]: 12.03 kcal/mol |
| LVSLKDRIERRQAER [Peptide P17] | orthodox (The differences in normalized product ion intensity values were always greater than 15 percentage points) | 82.69 | 56.18 | – | – | – | – | – | – | dx (V) [1]: 6.46 V; KD m0g# [Ø] [1]: 0.62 Ø; ΔCV50 (V) [1]: 24.61 V; ΔGm0g# [1]: 0.272 kcal/mol; Tamb ΔSm0g# [1]: 8.824 kcal/mol; ΔHm0g# [1]: 9.097 kcal/mol; Slope (%/V) [1]: 1.03 %/V |
| LVSLKDRIERRGAER [Peptide P15] | unorthodox (Differences in normalized product ion intensities were less than 15 percentage points, but greater than 5 percentage points) | 84.98 | 70.69 | – | – | – | – | – | – | dx (V) [1]: 6.09 V; ΔCV50 (V) [1]: 24.89 V; Slope (%/V) [1]: 0.59 %/V |
| LVSLKDRIERRWAER [Peptide P14] | orthodox (The differences in normalized product ion intensity values were always greater than 15 percentage points) | 93.86 | 54.37 | – | – | – | – | – | – | dx (V) [1]: 4.33 V; KD m0g# [Ø] [1]: 0.28 Ø; ΔCV50 (V) [1]: 18.02 V; ΔGm0g# [1]: 0.748 kcal/mol; Tamb ΔSm0g# [1]: 21.26 kcal/mol; ΔHm0g# [1]: 22.01 kcal/mol; Slope (%/V) [1]: 2.28 %/V |
| LVSLKDRIERRPAER [Peptide P16] | orthodox (The differences in normalized product ion intensity values were always greater than 15 percentage points) | 96.90 | 55.34 | – | – | – | – | – | – | dx (V) [1]: 5.05 V; KD m0g# [Ø] [1]: 0.48 Ø; ΔCV50 (V) [1]: 15.83 V; ΔGm0g# [1]: 0.44 kcal/mol; Tamb ΔSm0g# [1]: 20.02 kcal/mol; ΔHm0g# [1]: 20.46 kcal/mol; Slope (%/V) [1]: 2.06 %/V |
| AQQQRIRNEREKERQ [Peptide P22] | – | – | – | 7.70 | unorthodox (Differences in normalized product ion intensities were less than 15 percentage points, but greater than 5 percentage points) | 25.18 | 97.12 | 87.08 | 0.33 | – |
| AEQQSIRNEREKERQ [Peptide P26] | – | – | – | 6.49 | unorthodox (Differences in normalized product ion intensities were less than 15 percentage points, but greater than 5 percentage points) | 26.67 | 86.48 | 80.48 | 0.25 | Δ (% pts) [2]: 6.00 % pts |
